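Values below derive from 48-hour exposures of cells grown in 96-well plates, with endpoints linearly interpolated between the two concentrations bracketing the appropriate inhibition level. Abbreviation: GI50, concentration required for 50% inhibition of growth.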 Calls of active or inactive are those of the source. Rule as the data show it: active = GI50 up to about 1.1 µM and inactive = higher.
How the values were obtained:
Assay in all cases: NCI-60 cell line screen, 48 h
[1] = system: 786-0
[2] = system: CAKI-1
[3] = system: CCRF-CEM
[4] = system: EKVX
[5] = system: HCC 2998
[6] = system: MCF7
[7] = system: MDA-MB-231
[8] = system: MDA-MB-435
[9] = system: MOLT-4
[10] = system: NCI-H522
[11] = system: NCI/ADR-RES
[12] = system: OVCAR-8
[13] = system: SF-295
[14] = system: SK-MEL-28
[15] = system: SK-MEL-2
[16] = system: SR
[17] = system: UACC-257
[18] = system: A498
[19] = system: HOP-62

SMILES	GI50 [1]	GI50 [2]	GI50 [3]	GI50 [4]	GI50 [5]	GI50 [6]	GI50 [7]	GI50 [8]	GI50 [9]	GI50 [10]	GI50 [11]	GI50 [12]	GI50 [13]	GI50 [14]	GI50 [15]	GI50 [16]	GI50 [17]	GI50 [18]	GI50 [19]
COc1ccc(N[C@H]([C@@H](c2ccccc2)[S+]([O-])c2ccc(C)cc2)C(F)(F)F)cc1 (some centres undefined)	39 µM (inactive)	46.7 µM (inactive)	21.8 µM (inactive)	44 µM (inactive)	> 100 µM (inactive)	38.9 µM (inactive)	32.9 µM (inactive)	41.1 µM (inactive)	34.9 µM (inactive)	56.5 µM (inactive)	87.3 µM (inactive)	80.9 µM (inactive)	82.8 µM (inactive)	> 100 µM (inactive)	40 µM (inactive)	> 100 µM (inactive)	> 100 µM (inactive)		
Fc1ccccc1C1CC(C(c2ccccc2)c2ccccc2)=Nc2ccccc2S1 (centres undefined)	4.23 µM (inactive)	6.25 µM (inactive)	1.91 µM (inactive)	10.3 µM (inactive)	5.35 µM (inactive)				2.71 µM (inactive)	6.79 µM (inactive)		7.71 µM (inactive)	9.48 µM (inactive)	12.6 µM (inactive)	7.89 µM (inactive)		12.9 µM (inactive)	6.53 µM (inactive)	12.6 µM (inactive)
COc1cc(C2C(C(=O)O)=C(COC(C)=O)Oc3cc4c(cc32)OCO4)cc(OC)c1OC (centres undefined)		> 100 µM (inactive)	> 100 µM (inactive)	> 100 µM (inactive)					> 100 µM (inactive)			> 100 µM (inactive)	> 100 µM (inactive)	> 100 µM (inactive)	> 100 µM (inactive)		> 100 µM (inactive)		> 100 µM (inactive)
NC(=O)NNC/C(Cl)=C(\Cl)C(=O)O	> 100 µM (inactive)	> 100 µM (inactive)	> 100 µM (inactive)	> 100 µM (inactive)	> 100 µM (inactive)				> 100 µM (inactive)	> 100 µM (inactive)		> 100 µM (inactive)	> 100 µM (inactive)	> 100 µM (inactive)	> 100 µM (inactive)		> 82.6 µM (inactive)	> 100 µM (inactive)	> 100 µM (inactive)
c1c2c(cc(-n3nnc4c3CCCCCC4)c1-n1nnc3c1CCCCCC3)CCCCCC2		2.12 µM (inactive)	3.79 µM (inactive)	10.7 µM (inactive)	12.8 µM (inactive)				2.57 µM (inactive)	0.485 µM (active)		12.7 µM (inactive)	12 µM (inactive)	17.2 µM (inactive)	13.1 µM (inactive)	3.54 µM (inactive)	11.7 µM (inactive)	10.4 µM (inactive)	17.8 µM (inactive)
